Data as given in US9927437B2, “Treating neurodegenerative disease” (THE BRIGHAM AND WOMEN'S HOSPITAL, INC., priority 2013, dated 2018).

What was measured:
NF-κB (P65) = assay: NF-κB translocation to the nucleus in astrocytes (western blot); assay type: cell-based, mouse; settings: LPS/IFNγ; for translocation of NF-κB to the nucleus: cultured astrocytes
Method: FIGS. 14a-g. B4GALT6 directly controls astrocyte activation. (a) Cultured astrocytes were pre-treated for 1 h with PDMP (25 μM), LacCer (10 μM), both (LacCer+PDMP), or vehicle control (vehicle), followed by activation with LPS/IFNγ for 6 h, or left un-treated (control, Con). mRNA expression was analyzed 6 h following activation. qPCR analysis of the expression of cc/5, csf2, nos2, il6, H2-Aa, and tlr2 presented relative to gapdh. Statistical analysis by one-way ANOVA, followed by Tukey post-hoc analysis. (b, c) Cultured astrocytes were pre-treated for 1 h with LacCer (b) or PDMP (c), at indicated concentrations, followed by activation with LPS/IFNγ, or left un-treated (control, Con). Cell viability was determined 6 h after activation. […] Working concentrations (as in a) are marked in red. (d) The expression of B4galt6 (shB4galt6) or non-targeting shRNA (ShControl) in primary astrocytes was knocked-down using verified shRNA. Astrocytes were then pre-treated for 1 h with PDMP, or vehicle control (vehicle), followed by activation with LPS/IFNγ for 6 h, or left un-treated (control, Con). mRNA expression for H2-Aa, Ccl5 and Cxcl10 was determined; expression is presented as fold induction relative to housekeeping gene (Gapdh). Statistical analysis by one-way ANOVA, followed by Tukey post-hoc analysis (n≥3). […] (f) NF-κB (P65), GAPDH, and Lamin B expression, in cytoplasmic and nuclear fractions analyzed by western blot. The degree of NF-κB translocation to the nucleus was assessed by the ratio between the expression of P65 in nuclear and cytoplasmic fractions following densitometric quantification on four independent experiments (Right panel). […] (g) Expression of CCL-2 or iNOS in IRF-1^+ GFAP^+ astrocytes determined by IF during chronic EAE. […]
Astrocytes were treated as indicated, and total extracts (30 μg of protein), or the nuclear and cytoplasmic subcellular fractionations of cells, were separated by NuPAGE 10% Bis-Tris Gel (Invitrogen), and electroblotted onto supported nitrocellulose membrane. […] Data quantification was done using Image Studio software (Version 3.1.4) (LI-COR, Inc.)

Ly6C^high monocytes = assay: Response of Ly6C^high monocytes to LPS/IFNγ (nCounter); assay type: cell-based, mouse; settings: LPS/IFNγ 6 h
T cells = assay: T-cell response in EAE mice (recall proliferation, cytokines, polarization); assay type: in vivo, mouse
Method: FIGS. 9a-d. Depletion of reactive astrocytes reduces the recruitment of peripheral leukocytes to the CNS. (a-d). EAE was induced in WT or GFAP^TK F1 hybrid mice and Ganciclovir (GCV) or vehicle control (PBS) was administered as in FIG. 1b. Data are representative of three independent experiments with n≥7 mice/group (means and s.e.m.). (a) Effect of GCV administration on reactive astrocytes detected by GFAP staining (b) Recruitment of monocytes (red gate) and lymphocytes (green gate) to the CNS assessed by FACS. Data are representative of three independent experiments. Statistical analysis by Student's t-test. (c, d) Effect of the depletion of reactive astrocytes during the chronic phase of EAE on the recall proliferative response to MOG(35-55) or anti-CD3 (c) and the expression of IFN-γ, IL-17A, Foxp3 and IL-10 in splenic CD4+ T cells (d). *P<0.05, and (n.s) not significant.
FIGS. 12a-i. […] (a) Naïve C57BL/6 (Left panel) and NOD (right panel) mice were treated with LacCer (10 μg per mouse) or vehicle as indicated by red arrows, and EAE clinical scores was recorded. At experimental end point (day 25), astrocytes were isolated and their transcriptional profile was determined by nCounter Nanostring analysis. (b-e) EAE was induced in C57BL/6 (b, c) or NOD mice (d, e) and LacCer or vehicle were administrated as in FIGS. 1g and 1h, respectively. Splenic T-cell recall response to MOG(35-55) (20 μg/ml); proliferation (b, d) and secretion of IL-17A, IFN-γ and IL-10 cytokines (c, e). Data are representative of two independent experiments with ≥8 mice/group (mean and s.e.m.). (f-i) EAE NOD mice were treated with PDMP or vehicle during the chronic phase as in FIG. 1K. Data are representative of three independent experiments with n≥8 mice/group (mean and s.e.m.). (f) qPCR analysis of the expression of tbx21, ifng, rorc, il17A, csf2, il10, foxp3, and tgfb1 mRNA of CD3^+CD4^+ T-cells isolated from the CNS; expression is presented relative to gapdh. (g, h) Recall response to MOG(35-55) (20 μg/ml); proliferation (g) and secretion of IL-17A, IFN-γ and IL-10 cytokines (h). (i) Expression of IFN-γ, IL-17A, Foxp3 and IL-10 by splenic CD3^+CD4^+ T cells (mean and s.e.m.).
Splenocytes and lymph node cells were cultured in X-VIVO medium and were plated for 72 h at a density of 5×10^5 cells per well in the presence of MOG35-55 peptide. During the final 16 h, cells were pulsed with […] [3H]thymidine (PerkinElmer), followed by collection on glass fiber filters and analysis of incorporated [3H]thymidine in a-counter (1450 MicroBeta TriLux; PerkinElmer). Supernatants were collect after 48 h of culture for cytokine measurement by enzyme-linked immunosorbent assay^14. For intracellular cytokine staining, cells were stimulated for 6 h with PMA (phorbol 12-myristate 13-acetate; 50 ng/ml; Sigma), ionomycin (1 μg/ml; Sigma) and monensin (GolgiStop; […]; BD Biosciences). After staining of surface markers, cells were fixed and made permeable according to the manufacturer's instructions BD Cytofix/Cytoperm™ Kit (BD Biosciences), or Foxp3 Fixation/Permeabilization (Ebiosceince).

C57BL/6 mice = assay: EAE in C57BL/6 mice; assay type: in vivo; settings: 10 μg per mouse with MOG35-55 at induction and i.p. every 3 days

With CCCCCCCCCC(=O)N[C@H](CN1CCOCC1)[C@H](O)c1ccccc1 [PDMP, D-threo-1-phenyl-2-decanoylamino-3-morpholino-1-propanol] the “translocation of NF-κB to the nucleus” value (NF-κB (P65)) was “decreased translocation of NF-κB to the nucleus”, the “monocyte response to LPS/IFNγ stimulation” value (Ly6C^high monocytes) was “did not affect” and the T-cell response (T cells; NOD EAE, PDMP-treated mice, chronic phase) was “No significant changes”.
For lactosylceramide [LacCer], the “NF-κB translocation, LacCer added to PDMP” value (NF-κB (P65); LacCer + PDMP) was “abrogated the inhibition induced by PDMP”, the “translocation of NF-κB to the nucleus” value (NF-κB (P65)) was “triggered NF-M3 activation” and the “monocyte response to LPS/IFNγ stimulation” value (Ly6C^high monocytes) was “did not affect”. The EAE clinical scores (C57BL/6 mice) was “significant worsening of EAE” and the T-cell response (T cells; C57BL/6 and NOD EAE after LacCer administration) was “not linked to changes in the T-cell response”.
